From PMC10008561 (Nature Communications, 2023)
“And” between values parts separate entries of the source, which are not always exact repeats. Equal values may be shown once. Read-outs that look alike come from different tables or passages of the source.

What was measured:
[1] = target: T1, human KOR (GoA) (Homo sapiens, UniProt P41145); experiment: cell-based
T1 construct: expressed in transfected cells; host or cells: HEK293T

[2] = target: T2, human KOR (GoA) (Homo sapiens, UniProt P41145, D105A); experiment: cell-based
T2 construct: expressed in transfected cells; host or cells: HEK293T

[3] = target: T3, human KOR (GoA) (Homo sapiens, UniProt P41145, D155A); experiment: cell-based
T3 construct: expressed in transfected cells; host or cells: HEK293T

[4] = target: T4, human KOR (GoA) (Homo sapiens, UniProt P41145, D266A); experiment: cell-based
T4 construct: expressed in transfected cells; host or cells: HEK293T

[5] = target: T5, human KOR (GoA) (Homo sapiens, UniProt P41145, D334A); experiment: cell-based
T5 construct: expressed in transfected cells; host or cells: HEK293T

[6] = target: T6, human KOR (GoA) (Homo sapiens, UniProt P41145, E297A); experiment: cell-based
T6 construct: expressed in transfected cells; host or cells: HEK293T

[7] = target: T7, human KOR (GoA) (Homo sapiens, UniProt P41145, F114L); experiment: cell-based
T7 construct: expressed in transfected cells; host or cells: HEK293T

[8] = target: T8, human KOR (GoA) (Homo sapiens, UniProt P41145, F283A); experiment: cell-based
T8 construct: expressed in transfected cells; host or cells: HEK293T

[9] = target: T9, human KOR (GoA) (Homo sapiens, UniProt P41145, G319L); experiment: cell-based
T9 construct: expressed in transfected cells; host or cells: HEK293T

[10] = target: T10, human KOR (GoA) (Homo sapiens, UniProt P41145, K200A); experiment: cell-based
T10 construct: expressed in transfected cells; host or cells: HEK293T

[11] = target: T11, human KOR (GoA) (Homo sapiens, UniProt P41145, K227A); experiment: cell-based
T11 construct: expressed in transfected cells; host or cells: HEK293T

[12] = target: T12, human KOR (GoA) (Homo sapiens, UniProt P41145, L253A); experiment: cell-based; conditions: HEK-293T
T12 construct: expressed in transfected cells; host or cells: HEK293T

[13] = target: T13, human KOR (GoA) (Homo sapiens, UniProt P41145, N141A); experiment: cell-based
T13 construct: expressed in transfected cells; host or cells: HEK293T

[14] = target: T14, human KOR (GoA) (Homo sapiens, UniProt P41145, N322A); experiment: cell-based
T14 construct: expressed in transfected cells; host or cells: HEK293T

[15] = target: T15, human KOR (GoA) (Homo sapiens, UniProt P41145, N326A); experiment: cell-based
T15 construct: expressed in transfected cells; host or cells: HEK293T

[16] = target: T16, human KOR (GoA) (Homo sapiens, UniProt P41145, Q115N); experiment: cell-based
T16 construct: expressed in transfected cells; host or cells: HEK293T

[17] = target: T17, human KOR (GoA) (Homo sapiens, UniProt P41145, R170A); experiment: cell-based
T17 construct: expressed in transfected cells; host or cells: HEK293T

[18] = target: T18, human KOR (GoA) (Homo sapiens, UniProt P41145, R257A); experiment: cell-based
T18 construct: expressed in transfected cells; host or cells: HEK293T

[19] = target: T19, human KOR (GoA) (Homo sapiens, UniProt P41145, R271A); experiment: cell-based
T19 construct: expressed in transfected cells; host or cells: HEK293T

[20] = target: T20, human KOR (GoA) (Homo sapiens, UniProt P41145, R274A); experiment: cell-based
T20 construct: expressed in transfected cells; host or cells: HEK293T

[21] = target: T21, human KOR (GoA) (Homo sapiens, UniProt P41145, T94V); experiment: cell-based
T21 construct: expressed in transfected cells; host or cells: HEK293T

[22] = target: T22, human KOR (GoA) (Homo sapiens, UniProt P41145, Y139L); experiment: cell-based
T22 construct: expressed in transfected cells; host or cells: HEK293T

[23] = target: T23, human KOR (GoA) (Homo sapiens, UniProt P41145, Y320L); experiment: cell-based; conditions: HEK-293T
T23 construct: expressed in transfected cells; host or cells: HEK293T

[24] = target: human KOR (Homo sapiens, UniProt P41145); experiment: cell-based; design: expressed in transfected cells; host or cells: HEK 293T (ATCC, CRL-3216); conditions: HTLA
[25] = target: KOR K227A (Homo sapiens, UniProt P41145, K227A); type: cell-based; design: expressed in transfected cells; host or cells: HEK 293T (ATCC, CRL-3216); conditions: Log [Drug]
[26] = read-out: KOR WT_Arrestin response (Figure S4D)
[27] = read-out: Tango response (Figure S4C)

T17 sequence (P41145 whole entry R170A): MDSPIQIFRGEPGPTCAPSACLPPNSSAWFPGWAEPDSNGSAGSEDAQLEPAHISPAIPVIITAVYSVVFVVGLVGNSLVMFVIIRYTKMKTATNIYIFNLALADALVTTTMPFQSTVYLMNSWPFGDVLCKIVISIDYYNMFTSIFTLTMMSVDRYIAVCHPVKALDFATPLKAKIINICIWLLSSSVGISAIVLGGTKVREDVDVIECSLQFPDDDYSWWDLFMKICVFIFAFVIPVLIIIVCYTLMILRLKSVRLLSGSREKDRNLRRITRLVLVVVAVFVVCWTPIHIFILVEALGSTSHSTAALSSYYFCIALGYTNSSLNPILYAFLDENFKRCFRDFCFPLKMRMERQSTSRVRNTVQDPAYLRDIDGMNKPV
Sequence of human KOR (P41145 whole entry): as the sequence (P41145 whole entry R170A) above, with A170R counted along it
T1 sequence (P41145 whole entry): as the sequence (P41145 whole entry R170A) above, with A170R counted along it
Sequence of KOR K227A (P41145 whole entry K227A): as the sequence (P41145 whole entry R170A) above, with A170R, K227A counted along it
T3 sequence (P41145 whole entry D155A): as the sequence (P41145 whole entry R170A) above, with D155A, A170R counted along it
T14 sequence (P41145 whole entry N322A): as the sequence (P41145 whole entry R170A) above, with A170R, N322A counted along it
T15 sequence (P41145 whole entry N326A): as the sequence (P41145 whole entry R170A) above, with A170R, N326A counted along it
T6 sequence (P41145 whole entry E297A): as the sequence (P41145 whole entry R170A) above, with A170R, E297A counted along it
T19 sequence (P41145 whole entry R271A): as the sequence (P41145 whole entry R170A) above, with A170R, R271A counted along it
T9 sequence (P41145 whole entry G319L): as the sequence (P41145 whole entry R170A) above, with A170R, G319L counted along it
T13 sequence (P41145 whole entry N141A): as the sequence (P41145 whole entry R170A) above, with N141A, A170R counted along it
T21 sequence (P41145 whole entry T94V): as the sequence (P41145 whole entry R170A) above, with T94V, A170R counted along it
T4 sequence (P41145 whole entry D266A): as the sequence (P41145 whole entry R170A) above, with A170R, D266A counted along it
T5 sequence (P41145 whole entry D334A): as the sequence (P41145 whole entry R170A) above, with A170R, D334A counted along it
T11 sequence (P41145 whole entry K227A): as the sequence (P41145 whole entry R170A) above, with A170R, K227A counted along it
T10 sequence (P41145 whole entry K200A): as the sequence (P41145 whole entry R170A) above, with A170R, K200A counted along it
T8 sequence (P41145 whole entry F283A): as the sequence (P41145 whole entry R170A) above, with A170R, F283A counted along it
T16 sequence (P41145 whole entry Q115N): as the sequence (P41145 whole entry R170A) above, with Q115N, A170R counted along it
T7 sequence (P41145 whole entry F114L): as the sequence (P41145 whole entry R170A) above, with F114L, A170R counted along it
T18 sequence (P41145 whole entry R257A): as the sequence (P41145 whole entry R170A) above, with A170R, R257A counted along it
T20 sequence (P41145 whole entry R274A): as the sequence (P41145 whole entry R170A) above, with A170R, R274A counted along it
T23 sequence (P41145 whole entry Y320L): as the sequence (P41145 whole entry R170A) above, with A170R, Y320L counted along it
T12 sequence (P41145 whole entry L253A): as the sequence (P41145 whole entry R170A) above, with A170R, L253A counted along it
T22 sequence (P41145 whole entry Y139L): as the sequence (P41145 whole entry R170A) above, with Y139L, A170R counted along it
T2 sequence (P41145 whole entry D105A): as the sequence (P41145 whole entry R170A) above, with D105A, A170R counted along it

Structure (SMILES): CN(C(=O)/C=C/c1ccoc1)[C@@H]1CC[C@@]2(O)[C@H]3Cc4ccc(O)c5c4[C@@]2(CCN3CC2CC2)[C@H]1O5 [Nalfurafine, nalfurafine]
- Emax% [1]: 98.31%
- FC vs wild type [1]: 1
- Emax ([1]; HEK-293T): 98.7%
- FC vs wild type [2]: 110
- FC vs wild type [3]: 9 and < 10
- Emax ([3]; HEK-293T): 95.7%
- FC vs wild type [4]: 132
- Emax ([4]; HEK-293T): 108%
- FC vs wild type [5]: 18
- Emax ([5]; HEK-293T): 96.9%
- FC vs wild type [6]: 2
- Emax ([6]; HEK-293T): 98.9%
- FC vs wild type [7]: 40
- Emax ([7]; HEK-293T): 67.4%
- FC vs wild type [8]: 13
- Emax ([8]; HEK-293T): 89.5%
- FC vs wild type [9]: 20
- Emax ([9]; HEK-293T): 101%
- FC vs wild type [10]: 8
- Emax ([10]; HEK-293T): 91.4%
- FC vs wild type [11]: 1
- Emax ([11]; HEK-293T): 107%
- Emax [12]: 109%
- FC vs wild type [13]: 9
- Emax ([13]; HEK-293T): 101%
- FC vs wild type [14]: 100
- Emax ([14]; HEK-293T): 91.3%
- FC vs wild type [15]: 4
- Emax ([15]; HEK-293T): 103%
- FC vs wild type [16]: 24
- Emax ([16]; HEK-293T): 65.8%
- FC vs wild type [17]: 6 and ~10
- Emax ([17]; HEK-293T): 86.9%
- FC vs wild type [18]: 14 and 10
- FC vs wild type [19]: 135
- Emax ([19]; HEK-293T): 107%
- FC vs wild type [20]: 479
- Emax ([20]; HEK-293T): 99.5%
- FC vs wild type [21]: 1
- Emax ([21]; HEK-293T): 99.7%
- FC vs wild type [22]: 3
- Emax [23]: 75.8%
- Emax [24]: 100 ± 5%
- activation at 3.162 pM [24, 26]: 21.6%
- activation at 10 pM [24, 26]: 33.5%
- activation at 31.62 pM [24, 26]: 37.7%
- activation at 0.0001 µM [24, 26]: 65.6%
- activation at 0.001 µM [24, 26]: 67.9%
- activation at 0.01 µM [24, 26]: 76.6%
- activation at 0.1 µM [24, 26]: 97.1%
- activation at 1 µM [24, 26]: 106%
- activation at […] [24, 26]: 68.4% and 74.4% and 96.9% and 96.5%
- activation at 10 pM ([24]; read-out: Tango response): 21.8%
- activation at 31.62 pM ([24]; read-out: Tango response): 35.1%
- activation at 0.0001 µM ([24]; read-out: Tango response): 39.8%
- activation at 0.001 µM ([24]; read-out: Tango response): 74.2%
- activation at 0.01 µM ([24]; read-out: Tango response): 80.9%
- activation at 1 µM ([24]; read-out: Tango response): 106%
- activation at […] ([24]; read-out: Tango response): 71% and 100%
- activation at 0.0001 µM [24, 27]: 36.1%
- activation at 0.001 µM [24, 27]: 74.1%
- activation at 0.1 µM [24, 27]: 87.2%
- activation at 1 µM [24, 27]: 87.7%
- activation at 10 µM [24, 27]: 121%
- activation at […] [24, 27]: 77.4% and 111%
- KOR K227A_Gi response (Figure S4D) ([25]; M -6, replicate values): 107.002 and 103.527 and 102.568
- KOR K227A_Gi response (Figure S4D) ([25]; M -6.5, replicate values): 98.0139 and 98.733 and 102.808
- KOR K227A_Gi response (Figure S4D) ([25]; M -7, replicate values): 101.489 and 104.366 and 102.568
- KOR K227A_Gi response (Figure S4D) ([25]; M -7.5, replicate values): 98.3734 and 96.4559 and 94.5383
- KOR K227A_Gi response (Figure S4D) ([25]; M -8, replicate values): 100.531 and 98.0139
- KOR K227A_Gi response (Figure S4D) ([25]; M -8.5, replicate values): 99.8116 and 103.767 and 98.2536
- KOR K227A_Gi response (Figure S4D) ([25]; M -9, replicate values): 96.9353 and 103.167 and 100.291
- KOR K227A_Gi response (Figure S4D) ([25]; M -9.5, replicate values): 98.9727 and 99.5719 and 95.8566
- KOR K227A_Gi response (Figure S4D) ([25]; M -10, replicate values): 99.3322 and 106.283 and 99.5719
- KOR K227A_Gi response (Figure S4D) ([25]; M -10.5, replicate values): 95.9765 and 94.778 and 93.8193
- KOR K227A_Gi response (Figure S4D) ([25]; M -11, replicate values): 90.7033 and 96.5757 and 95.2574
- KOR K227A_Gi response (Figure S4D) ([25]; M -12, replicate values): 68.1721 and 73.8049 and 67.4531
- KOR K227A_Gi response (Figure S4D) ([25]; M -12.5, replicate values): 37.1319 and 43.2441 and 45.1616
- KOR K227A_Gi response (Figure S4D) ([25]; M -13, replicate values): 12.6833 and 10.4062
- KOR K227A_Gi response (Figure S4D) ([25]; M -14, replicate values): 6.331 and 5.612 and 17.3573
